# Results from ChEMBL document CHEMBL5528047, “A Potent SOS1 PROTAC Degrader with Synergistic Efficacy in Combination with KRASG12C Inhibitor” (J Med Chem, 2024).
# Active and inactive are the calls of the source. No cut-off for these calls is given here.
# Columns and labels:
# [1] = AUC(0 to infinity) in ICR mouse at 10 mg/kg, po measured upto 24 hrs by LC-MS/MS analysis; format: ADME, organism-based; details: in vivo
# [2] = target: T1, von Hippel-Lindau disease tumor suppressor/Son of sevenless homolog 1 (Homo sapiens, UniProt Q07889+P40337); assay: Protac activity at VHL/SOS1 in human MIA PaCa-2 cells assessed as SOS1 degradation at 1 uM preincubated with BI3406 for 2 hrs followed by compound addition and measured after 3 hrs by Western blotting analysis; format: cell-based
# Target sequence in this assay (P40337 whole entry, looked up, one chain of several): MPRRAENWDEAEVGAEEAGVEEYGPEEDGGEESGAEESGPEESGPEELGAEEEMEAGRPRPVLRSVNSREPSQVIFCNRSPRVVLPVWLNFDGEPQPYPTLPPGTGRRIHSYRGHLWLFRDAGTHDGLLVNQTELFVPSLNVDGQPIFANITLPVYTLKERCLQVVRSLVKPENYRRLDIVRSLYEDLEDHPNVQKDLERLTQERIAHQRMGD
# NCI-H358 [3] = assay: Antitumor activity against human NCI-H358 cells xenografted in BALB/c mouse assessed as tumor growth inhibition at 30 mg/kg, ip administered once daily for 28 days; format: functional; details: NCI-H358, 672 h, time 28 day, read-out: TGI
# [4] = target: T2, Son of sevenless homolog 1 (Homo sapiens) (UniProt Q07889); assay: Induction of SOS1 degradation in human MIA PaCa-2 cells at 1 uM after 24 hrs by MS analysis; format: cell-based
# T2 sequence (whole entry): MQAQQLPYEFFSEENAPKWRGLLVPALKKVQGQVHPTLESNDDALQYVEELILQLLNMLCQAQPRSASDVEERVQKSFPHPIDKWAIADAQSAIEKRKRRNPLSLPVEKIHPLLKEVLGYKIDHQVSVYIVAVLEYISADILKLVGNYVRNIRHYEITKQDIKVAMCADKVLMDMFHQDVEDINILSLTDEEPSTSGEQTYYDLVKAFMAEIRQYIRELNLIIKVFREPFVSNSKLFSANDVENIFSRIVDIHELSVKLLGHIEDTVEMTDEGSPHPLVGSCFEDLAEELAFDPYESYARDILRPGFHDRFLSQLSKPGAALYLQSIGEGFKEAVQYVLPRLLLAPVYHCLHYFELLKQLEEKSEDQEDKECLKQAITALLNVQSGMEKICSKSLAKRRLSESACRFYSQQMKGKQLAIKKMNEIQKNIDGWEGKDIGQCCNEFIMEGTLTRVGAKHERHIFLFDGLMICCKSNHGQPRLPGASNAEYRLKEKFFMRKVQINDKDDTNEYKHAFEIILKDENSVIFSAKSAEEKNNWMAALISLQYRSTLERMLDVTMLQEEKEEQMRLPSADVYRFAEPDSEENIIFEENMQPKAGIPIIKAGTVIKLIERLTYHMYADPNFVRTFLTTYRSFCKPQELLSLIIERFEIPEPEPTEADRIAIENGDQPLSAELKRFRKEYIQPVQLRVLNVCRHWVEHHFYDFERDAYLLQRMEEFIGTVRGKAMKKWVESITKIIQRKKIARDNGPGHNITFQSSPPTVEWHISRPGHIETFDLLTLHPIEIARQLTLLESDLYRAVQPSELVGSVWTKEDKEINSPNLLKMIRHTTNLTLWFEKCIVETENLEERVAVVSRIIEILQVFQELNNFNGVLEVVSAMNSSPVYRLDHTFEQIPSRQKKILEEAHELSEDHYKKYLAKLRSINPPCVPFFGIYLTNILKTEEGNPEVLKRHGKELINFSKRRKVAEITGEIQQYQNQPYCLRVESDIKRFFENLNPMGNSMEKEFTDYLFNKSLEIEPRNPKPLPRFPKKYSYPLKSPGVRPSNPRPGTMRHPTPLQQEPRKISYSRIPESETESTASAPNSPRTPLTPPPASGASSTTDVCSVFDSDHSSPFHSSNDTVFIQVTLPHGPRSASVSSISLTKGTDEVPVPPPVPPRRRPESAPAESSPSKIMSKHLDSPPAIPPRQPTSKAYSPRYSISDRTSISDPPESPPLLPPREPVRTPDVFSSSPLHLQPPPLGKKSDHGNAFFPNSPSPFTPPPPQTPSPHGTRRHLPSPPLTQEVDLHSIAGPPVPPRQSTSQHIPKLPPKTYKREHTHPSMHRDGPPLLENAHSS
# K562 [5] = assay: Potency index, ratio of BI3406 IC50 to test compound IC50 for antiproliferative activity against human K562 cells incubated for 72 hrs by CCK8 assay; format: functional
# [6] = target: T1, von Hippel-Lindau disease tumor suppressor/Son of sevenless homolog 1; assay: Protac activity at VHL/SOS1 in human MIA PaCa-2 cells assessed as SOS1 degradation incubated for 24 hrs by Western blotting analysis; format: cell-based
# K562 [7] = assay: Effect on total ERK level in human K562 cells at 0.3 to 3 uM incubated for 24 hrs by Western blotting analysis; format: functional, cell-based; details: dose 0.3-3 µM
# [8] = target: T1, von Hippel-Lindau disease tumor suppressor/Son of sevenless homolog 1; assay: Protac activity at VHL/SOS1 in human MIA PaCa-2 cells assessed as SOS1 degradation at 1 uM preincubated with MLN4924 for 2 hrs followed by compound addition and measured after 3 hrs by Western blotting analysis; format: cell-based
# Target sequence in this assay (P40337 whole entry, looked up, one chain of several): as the sequence (P40337 whole entry, looked up, one chain of several) above
# [9] = target: T1, von Hippel-Lindau disease tumor suppressor/Son of sevenless homolog 1; assay: Protac activity at VHL/SOS1 in human NCI-H358 cells assessed as SOS1 degradation incubated for 24 hrs by Western blotting analysis; format: cell-based
# [10] = target: T1, von Hippel-Lindau disease tumor suppressor/Son of sevenless homolog 1; assay: Protac activity at VHL/SOS1 in human NCI-H358 cells assessed as maximum SOS1 degradation at 0.003 to 10 uM incubated for 24 hrs by Western blotting analysis; format: cell-based; details: dose 0.003-10 µM
# Target sequence in this assay (P40337 whole entry, looked up, one chain of several): as the sequence (P40337 whole entry, looked up, one chain of several) above
# [11] = Cmax in ICR mouse at 10 mg/kg, po measured upto 24 hrs by LC-MS/MS analysis; format: ADME, organism-based; details: in vivo
# [12] = Half life in ICR mouse at 10 mg/kg, po measured upto 24 hrs by LC-MS/MS analysis; format: ADME, organism-based; details: in vivo
# [13] = target: T1, von Hippel-Lindau disease tumor suppressor/Son of sevenless homolog 1; assay: Protac activity at VHL/SOS1 in human PANC-1 cells assessed as SOS1 degradation at 1 uM by Western blotting analysis relative to control; format: cell-based
# Target sequence in this assay (P40337 whole entry, looked up, one chain of several): as the sequence (P40337 whole entry, looked up, one chain of several) above
# MIA PaCa-2 = assay: Inhibition of ERK phosphorylation in human MIA PaCa-2 cells at 1 uM measured after 24 to 72 hrs in presence of AMG510 by Western blotting analysis; format: cell-based; details: time 24-72 hrs
# NCI-H358 [14] = assay: Antiproliferative activity against human NCI-H358 cells incubated for 6 days by CCK8 assay; format: functional, cell-based; details: NCI-H358, 144 h
# NCI-H358 [15] = assay: Synergistic antiproliferative activity against human NCI-H358 cells assessed as combination index incubated for 5 days in presence of 4-((S)-4-acryloyl-2-methylpiperazin-1-yl)-6-fluoro-7-(2-fluoro-6-hydroxyphenyl)-1-(2-isopropyl-4-methylpyridin-3-yl)pyrido[2,3-d]pyrimidin-2(1H)-one; format: functional; details: time 5 day
# [16] = Toxicity in BALB/c mouse xenografted with human NCI-H358 cells assessed as body weight loss at 30 mg/kg, ip administered once daily for 28 days in presence of 10 mg/kg 4-((S)-4-acryloyl-2-methylpiperazin-1-yl)-6-fluoro-7-(2-fluoro-6-hydroxyphenyl)-1-(2-isopropyl-4-methylpyridin-3-yl)pyrido[2,3-d]pyrimidin-2(1H)-one; format: organism-based; details: in vivo, 672 h, time 28 day
# [17] = target: T1, von Hippel-Lindau disease tumor suppressor/Son of sevenless homolog 1; assay: Protac activity at VHL/SOS1 in human PANC-1 cells assessed as SOS1 degradation at 1 uM incubated for 96 hrs by Western blotting analysis; format: cell-based
# Target sequence in this assay (P40337 whole entry, looked up, one chain of several): as the sequence (P40337 whole entry, looked up, one chain of several) above
# K562 [18] = assay: Antiproliferative activity against human K562 cells incubated for 72 hrs by CCK8 assay; format: functional, cell-based; details: K562, 72 h
# K562 [19] = assay: Effect on total MEK level in human K562 cells at 0.3 to 3 uM incubated for 24 hrs by Western blotting analysis; format: functional, cell-based; details: dose 0.3-3 µM
# SW837 = assay: Antiproliferative activity against human SW837 cells incubated for 6 days by CCK8 assay; format: functional, cell-based; details: SW837, 144 h
smiles,measurement,setting,value
COc1cc2nc(C)nc(N[C@H](C)c3cc(N)cc(C(F)(F)F)c3)c2cc1OCCCCC(=O)N[C@H](C(=O)N1C[C@H](O)C[C@H]1C(=O)NCc1ccc(-c2scnc2C)cc1)C(C)(C)C,AUC(0-inf),[1],4280 ng·h/mL
same,Activity,[2],inactive
same,inhibition in vivo at 30 mg/kg,NCI-H358 [3],11.4%
same,Activity,[4],Active
same,Ratio IC50,K562 [5],3
same,Activity,[6],Dose-Dependent Effect
same,DC50,[6],61 nM
same,Activity,K562 [7],inactive
same,Activity,[8],inactive
same,Activity,[9],Dose-Dependent Effect
same,DC50,[9],50 nM
same,Emax,[10],> 90%
same,Cmax,[11],1650 ng/mL
same,half-life,[12],251 min
same,Activity,[13],90.9%
same,inhibition,MIA PaCa-2,Active
same,IC50,NCI-H358 [14],2450 nM
same,CI,NCI-H358 [15],<1
same,Activity,[16],Non-Toxic
same,Activity,[17],Active
same,IC50,K562 [18],535 nM
same,Activity,K562 [19],inactive
same,IC50,SW837,1040 nM
